# Assay results from ChEMBL document CHEMBL1201862, “PubChem BioAssay data set” (2004).
#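 How tested: cells in 96-well plates exposed to compound for 48 hours at five concentrations. GI50 marks 50% less growth.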 Active and inactive are the calls of the source. Rule as the data show it: active = GI50 up to about 1.1 µM and inactive = higher.
# Key:
# Test in all cases: NCI tumour cell line growth inhibition, 48 h
# CCRF-CEM = system: CCRF-CEM
# HCT-15 = system: HCT-15
# HT-29 = system: HT-29
# IGROV-1 = system: IGROV-1
# LOX IMVI = system: LOX IMVI
# MCF7 = system: MCF7
# MDA-MB-435 = system: MDA-MB-435
# Malme-3M = system: Malme-3M
# OVCAR-4 = system: OVCAR-4
# RPMI-8226 = system: RPMI-8226
# RXF 393 = system: RXF 393
# SNB-75 = system: SNB-75
# SR = system: SR
# SW-620 = system: SW-620
# UO-31 = system: UO-31
# HOP-92 = system: HOP-92
# KM12 = system: KM12
# OVCAR-5 = system: OVCAR-5
# SNB-19 = system: SNB-19
SMILES,GI50 (CCRF-CEM),GI50 (HCT-15),GI50 (HT-29),GI50 (IGROV-1),GI50 (LOX IMVI),GI50 (MCF7),GI50 (MDA-MB-435),GI50 (Malme-3M),GI50 (OVCAR-4),GI50 (RPMI-8226),GI50 (RXF 393),GI50 (SNB-75),GI50 (SR),GI50 (SW-620),GI50 (UO-31),GI50 (HOP-92),GI50 (KM12),GI50 (OVCAR-5),GI50 (SNB-19)
COc1ccc(CC2C(=O)NC(C)C(=O)N(C)C3Cc4ccc(cc4)Oc4cc(ccc4O)CC(C(=O)NC(C)C(=O)NC(C)C(=O)N2C)N(C)C3=O)cc1 (stereo not drawn),0.0175 µM (active),0.851 µM,0.0355 µM (active),0.0175 µM (active),0.0409 µM (active),0.0175 µM (active),< 0.0001 µM (active),0.0175 µM (active),0.0175 µM (active),0.0175 µM (active),0.0175 µM (active),0.0175 µM (active),< 0.0001 µM (active),0.0177 µM (active),0.857 µM (active),,,,
O=S(=O)(N/N=C/c1cccc(/C=N/NS(=O)(=O)c2ccccc2)c1)c1ccccc1,76.4 µM (inactive),80.5 µM,86.1 µM (inactive),69.2 µM (inactive),30 µM (inactive),,,> 100 µM (inactive),77.8 µM (inactive),70.8 µM (inactive),51.6 µM (inactive),> 100 µM (inactive),58.1 µM (inactive),,46.7 µM (inactive),38.9 µM (inactive),58.6 µM (inactive),> 100 µM (inactive),
Cc1[nH]c2ccccc2c1C1Cc2ccccc2N1C(=O)/C(Cl)=C/c1ccccc1 (stereo not drawn),> 73.1 µM (inactive),> 100 µM,> 100 µM (inactive),61.1 µM (inactive),> 100 µM (inactive),,,> 86.3 µM (inactive),> 88.1 µM (inactive),> 72.6 µM (inactive),7.83 µM (inactive),4.65 µM (inactive),29.2 µM (inactive),> 100 µM (inactive),16.3 µM (inactive),> 100 µM (inactive),> 100 µM (inactive),> 100 µM (inactive),> 100 µM (inactive)
O=c1c(C(c2ccc([N+](=O)[O-])cc2)c2c(O)c3ccccc3n(-c3ccccc3)c2=O)c(O)c2ccccc2n1-c1ccccc1,1.51 µM (inactive),10.1 µM,,6.56 µM (inactive),11.8 µM (inactive),,,13 µM (inactive),59.7 µM (inactive),12.2 µM (inactive),14.4 µM (inactive),,9.98 µM (inactive),18.4 µM (inactive),8.51 µM (inactive),9.18 µM (inactive),17.7 µM (inactive),51.9 µM (inactive),7.28 µM (inactive)
CC(C)(C)OC(=O)N1Cc2cc(O)ccc2C[C@H]1C(=O)O,> 100 µM (inactive),> 100 µM,> 100 µM (inactive),> 100 µM (inactive),> 100 µM (inactive),> 100 µM (inactive),> 100 µM (inactive),> 100 µM (inactive),> 100 µM (inactive),,> 100 µM (inactive),> 100 µM (inactive),> 100 µM (inactive),> 100 µM (inactive),,> 100 µM (inactive),> 100 µM (inactive),> 100 µM (inactive),> 100 µM (inactive)
O=C(CCc1ccccc1)NS(=O)(=O)c1ccccc1,> 100 µM (inactive),,> 100 µM (inactive),> 100 µM (inactive),> 100 µM (inactive),,,> 100 µM (inactive),> 100 µM (inactive),> 100 µM (inactive),> 100 µM (inactive),> 100 µM (inactive),> 100 µM (inactive),> 100 µM (inactive),> 100 µM (inactive),> 100 µM (inactive),> 100 µM (inactive),> 100 µM (inactive),> 100 µM (inactive)
COc1ccc2nc3ccc(OC)cc3c(S(=O)(=O)Cc3ccc([N+](=O)[O-])cc3)c2c1,> 100 µM (inactive),> 100 µM,68.7 µM (inactive),> 100 µM (inactive),> 100 µM (inactive),> 100 µM (inactive),> 100 µM (inactive),> 100 µM (inactive),> 100 µM (inactive),,> 100 µM (inactive),38.7 µM (inactive),> 100 µM (inactive),> 100 µM (inactive),> 100 µM (inactive),> 100 µM (inactive),> 100 µM (inactive),> 100 µM (inactive),> 100 µM (inactive)
O=C(CC(=O)c1cccc2ccccc12)C(=O)Nc1nccs1,> 100 µM (inactive),> 100 µM,> 100 µM (inactive),> 100 µM (inactive),> 100 µM (inactive),,,> 100 µM (inactive),> 100 µM (inactive),> 100 µM (inactive),> 100 µM (inactive),66.2 µM (inactive),> 100 µM (inactive),> 100 µM (inactive),> 100 µM (inactive),> 100 µM (inactive),> 100 µM (inactive),> 100 µM (inactive),
CN(C)CC1(C)CC/C(=C\c2ccc3c(c2)OCO3)C1=O (stereo not drawn),59.4 µM (inactive),> 100 µM,> 100 µM (inactive),> 100 µM (inactive),> 100 µM (inactive),,,> 100 µM (inactive),> 100 µM (inactive),27.5 µM (inactive),> 100 µM (inactive),> 100 µM (inactive),45.9 µM (inactive),92.9 µM (inactive),> 100 µM (inactive),> 100 µM (inactive),> 100 µM (inactive),> 100 µM (inactive),> 100 µM (inactive)
COC(=O)CCC(=O)c1ccc2c(c1)CC1(C2)Cc2ccc3c(c2C1)CCCC3=O (stereo not drawn),1.78 µM (inactive),8.15 µM,11.2 µM (inactive),21.9 µM (inactive),20 µM (inactive),12.2 µM (inactive),3.73 µM (inactive),18.4 µM (inactive),24.1 µM (inactive),,> 53 µM (inactive),86.5 µM (inactive),0.297 µM (active),20.7 µM (inactive),18.2 µM (inactive),15.5 µM (inactive),14.7 µM (inactive),40.1 µM (inactive),27.2 µM (inactive)
CC(=O)O[C@H]1C(=O)[C@@]2(C)[C@H]([C@H](OC(=O)c3ccccc3)[C@]3(O)C[C@H](OC(=O)[C@H](O)[C@@H](NC(=O)c4ccco4)c4ccccc4)C(C)=C1C3(C)C)[C@]1(OC(C)=O)CO[C@@H]1C[C@@H]2O,< 0.00125 µM (active),0.249 µM,< 0.00125 µM (active),0.0019 µM (active),< 0.00125 µM (active),< 0.00125 µM (active),< 0.00125 µM (active),,> 10.7 µM (inactive),< 0.00125 µM (active),0.00407 µM (active),< 0.00125 µM (active),< 0.00125 µM (active),< 0.00125 µM (active),0.627 µM (active),,< 0.00125 µM (active),< 0.00125 µM (active),0.00134 µM (active)
NC(N)=NN/C(=C1/N=c2ccc([N+](=O)[O-])cc2=NC1=O)C(O)c1ccco1 (stereo not drawn),67.1 µM (inactive),> 100 µM,> 100 µM (inactive),> 100 µM (inactive),> 100 µM (inactive),,,> 100 µM (inactive),> 100 µM (inactive),43.7 µM (inactive),> 100 µM (inactive),> 100 µM (inactive),> 100 µM (inactive),> 100 µM (inactive),64.7 µM (inactive),> 100 µM (inactive),> 100 µM (inactive),> 100 µM (inactive),> 100 µM (inactive)
